In US20260234115A1, “LIPID COMPOUNDS, COMPOSITIONS, AND USES THEREOF” (Liberate Bio, Inc., priority 2023, published 2026):
Marks after values point to notes of the source that are not given here.

Legend:
[1] = Dynamic light scattering: LNP particle size and PDI; assay type: physicochemical; conditions: for PDI N/P:3 / Size (nm) N/P:3 / PDI N/P:6 / Size (nm) N/P:6: LNP
Method: (§1) Lipids and active ingredients (e.g., RNA, DNA, etc.) were assembled into LNPs using microfluidic mixing. An ethanol phase was prepared by solubilizing ionizable lipids (i.e., lipid compounds), phospholipids (e.g., DSPC), cholesterol, and PEG lipids in ethanol, at predetermined mol % ratios given in Table 2. An aqueous phase was prepared by diluting a nucleic acid cargo (e.g., firefly luciferase mRNA) in an acidified buffer (pH 4.0 citrate buffer, 50 mM). A chip with microfluidic mixing architecture (e.g., toroidal mixer) was used to mix the two phases at predetermined flow rate ratios (e.g., 9 ml/min for the aqueous phase and 3 ml/min for the ethanol phase). Resulting LNPs comprising the lipids and encapsulating the nucleic acid cargo were dialyzed against PBS pH 7.4 for 2 hours at room temperature in a 20 kDa MWCO dialysis membrane. Then, PBS was refreshed to continue dialysis overnight at 2-8 TC. Upon completion of the buffer exchange, LNPs were optionally concentrated using a ultracentrifugal unit with a 10-100 kDa MWCO membrane.
d. Dynamic Light Scattering
LNPs were diluted with PBS pH 7.4 to predetermined dilution ranges based on the process step and LNP concentration. Following mixing, the particle size and PDI were measured by a dynamic light scattering instrument.

[2] = Plate-based fluorescence (RiboGreen) assay: nucleic acid cargo content and encapsulation efficiency of LNPs; assay type: physicochemical; conditions: for EE (%) N/P:3 / EE (%) N/P:6: LNP
Method: as §1
c. Plate-Based Fluorescence (RiboGreen) Assay
Nucleic acid cargos in the LNPs were quantified by RiboGreen assay, against a nucleic acid standard curve. LNPs encapsulating nucleic acid cargo were mixed with 1× Tris-EDTA (TE) and 2% triton in TE, separately, to achieve dilutions required by the assay. Then, the samples were heated at 30° C. and vortexed at 300 rpm. Samples were plated into 96-well plates and RiboGreen reagent was added into each well. Following incubation in the dark, fluorescence was measured from the wells, and plotted against the standard curve. Nucleic acid concentration obtained from the Triton-treated samples were used for total cargo concentration quantification. Only TE diluted sample fluorescence values were used to determine the non-encapsulated (free) cargo, and their ratio was used to determine the encapsulation efficiency (EE %).

mouse organs = assay: In vivo activity screening in mice: organ mean total flux (p/s) of luciferase activity after injection of F2 LNP pools (Table 6, FIG. 7A-7C); conditions: luciferase mRNA
Procedure, shortened: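 Luciferase output per organ is reported as mean total flux (p/s) from IVIS regions of interest. Organs were collected from perfused C57BL/6J mice and imaged 10-15 min after s.c. D-luciferin, 4-6 h after i.v. dosing. Dosing was 0.25-3 mg/kg luciferase mRNA in F2 LNP pools.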

[3] = LNP compositions for in vivo mouse study, four formulations (F1-F4) of the lipid compound pooled, or pools of four compounds (sixteen compositions)
[4] = LNP compositions for in vivo mouse study, four formulations (F1-F4) pooled, or pools of four compounds
[5] = LNP compositions for Formulation F2 Study

| Compound | Particle Size (nm) [1, 3] [nm] | PDI [1, 4] | PDI N/P:6 ([1]; Formulation F1, N/P 6) | Size (nm) N/P:6 ([1]; Formulation F1, N/P 6) [nm] | PDI N/P:6 ([1]; Formulation F2, N/P 6) | Size (nm) N/P:6 ([1]; Formulation F2, N/P 6) [nm] | PDI N/P:6 ([1]; Formulation F3, N/P 6) | Size (nm) N/P:6 ([1]; Formulation F3, N/P 6) [nm] | PDI N/P:6 ([1]; Formulation F4, N/P 6) | Size (nm) N/P:6 ([1]; Formulation F4, N/P 6) [nm] | EE % [2, 4] [%] | mRNA Content [2, 4] [µg/mL] | EE (%) N/P:6 ([2]; Formulation F1, N/P 6) [%] | EE (%) N/P:6 ([2]; Formulation F2, N/P 6) [%] | EE (%) N/P:6 ([2]; Formulation F3, N/P 6) [%] | EE (%) N/P:6 ([2]; Formulation F4, N/P 6) [%] | Organ Mean Total Flux Femur (mouse organs; Mouse 1, dose 0.3 mg/kg) | Organ Mean Total Flux Heart (mouse organs; Mouse 1, dose 0.3 mg/kg) | Organ Mean Total Flux Kidney (mouse organs; Mouse 1, dose 0.3 mg/kg) | Organ Mean Total Flux Liver (mouse organs; Mouse 1, dose 0.3 mg/kg) | other results |
| --- | --- | --- | --- | --- | --- | --- | --- | --- | --- | --- | --- | --- | --- | --- | --- | --- | --- | --- | --- | --- | --- |
| CCCCC/C=C\C/C=C\CCCCCCCC(=O)OCC(COC(=O)CCCCCCC/C=C\C/C=C\CCCCC)(COC(=O)CCC(CCCCCC)OC(=O)NCCN1CCCC1)COC(=O)CCC(OCCCCCCCC)OCCCCCCCC (stereo not shown) [Compound 6, [2-(4,4-dioctoxybutanoyloxymethyl)-2-[[(9Z,12Z)-octadeca-9,12-dienoyl]oxymethyl]-3-[4-(2-pyrrolidin-1-ylethylcarbamoyloxy)decanoyloxy]propyl](9Z,12Z)-octadeca-9,12-dienoate] | 77.9 | 0.107 | 0.172 | 69 ± 3 | 0.012 | 83 ± 1 | 0.078 | 85 ± 1 | 0.081 | 63 ± 1 | 99 | 100.1 | 100 | 100 | 100 | 100 | 6.1 p/s (×10^6) | 2.1 p/s (×10^6) | 1.3 p/s (×10^6) | 2966 p/s (×10^6) | PDI N/P:3 ([1]; Formulation F1, N/P 3): 0.09; Size (nm) N/P:3 ([1]; Formulation F1, N/P 3): 77 ± 2 nm; PDI N/P:3 ([1]; Formulation F2, N/P 3): 0.027; Size (nm) N/P:3 ([1]; Formulation F2, N/P 3): 89 ± 2 nm; PDI N/P:3 ([1]; Formulation F3, N/P 3): 0.059; Size (nm) N/P:3 ([1]; Formulation F3, N/P 3): 105 ± 5 nm; PDI N/P:3 ([1]; Formulation F4, N/P 3): 0.084; Size (nm) N/P:3 ([1]; Formulation F4, N/P 3): 65 ± 1 nm; EE (%) N/P:3 ([2]; Formulation F1, N/P 3): 99%; EE (%) N/P:3 ([2]; Formulation F2, N/P 3): 99%; EE (%) N/P:3 ([2]; Formulation F3, N/P 3): 95%; EE (%) N/P:3 ([2]; Formulation F4, N/P 3): 98%; Organ Mean Total Flux Lung (mouse organs; Mouse 1, dose 0.3 mg/kg): 17.6 p/s (×10^6); Organ Mean Total Flux Muscle (mouse organs; Mouse 1, dose 0.3 mg/kg): 8.3 p/s (×10^6); Organ Mean Total Flux Pancreas (mouse organs; Mouse 1, dose 0.3 mg/kg): 2.1 p/s (×10^6); Organ Mean Total Flux Spleen (mouse organs; Mouse 1, dose 0.3 mg/kg): 14.1 p/s (×10^6) |
| CCCCC/C=C\CCOC(=O)CCCCCC(=O)OCC(COC(=O)CCCCCC(=O)OCC/C=C\CCCCC)(COC(=O)CCCCCC(=O)OCC/C=C\CCCCC)COC(=O)CCC(CCCCCC)OC(=O)NCCN1CCCC1 (stereo not shown) [Compound 7, O7-[2,2-bis[[7-[(Z)-non-3-enoxy]-7-oxo-heptanoyl]oxymethyl]-3-[4-(2-pyrrolidin-1-ylethylcarbamoyloxy)decanoyloxy]propyl]O1-[(Z)-non-3-enyl]heptanedioate] | 89.3 | 0.14 | 0.08 | 75 ± 1 | 0.11 | 97 ± 5 | 0.09 | 99 ± 2 | 0.21 | 75 ± 3 | 96 | 84 | 99 | 97 | 98 | 98 | 2.4 p/s (×10^6) | 0.2 p/s (×10^6) | 0.7 p/s (×10^6) | 140.0 p/s (×10^6) | PDI [1, 5]: 0.086; Particle Size (nm) [1, 5]: 120.8 nm; EE % [2, 5]: 98%; Organ Mean Total Flux Lung (mouse organs; Mouse 1, dose 0.3 mg/kg): 4.9 p/s (×10^6); Organ Mean Total Flux Muscle (mouse organs; Mouse 1, dose 0.3 mg/kg): 2.5 p/s (×10^6); Organ Mean Total Flux Pancreas (mouse organs; Mouse 1, dose 0.3 mg/kg): 1.8 p/s (×10^6); Organ Mean Total Flux Spleen (mouse organs; Mouse 1, dose 0.3 mg/kg): 29.0 p/s (×10^6); Organ Mean Total Flux Femur (mouse organs; Mouse 14, dose 0.5 mg/kg): 5.7 p/s (×10^6); Organ Mean Total Flux Heart (mouse organs; Mouse 14, dose 0.5 mg/kg): 0.9 p/s (×10^6); Organ Mean Total Flux Kidney (mouse organs; Mouse 14, dose 0.5 mg/kg): 3.2 p/s (×10^6); Organ Mean Total Flux Liver (mouse organs; Mouse 14, dose 0.5 mg/kg): 338.0 p/s (×10^6); Organ Mean Total Flux Lung (mouse organs; Mouse 14, dose 0.5 mg/kg): 14.5 p/s (×10^6); Organ Mean Total Flux Muscle (mouse organs; Mouse 14, dose 0.5 mg/kg): 48.2 p/s (×10^6); Organ Mean Total Flux Pancreas (mouse organs; Mouse 14, dose 0.5 mg/kg): 1.5 p/s (×10^6); Organ Mean Total Flux Spleen (mouse organs; Mouse 14, dose 0.5 mg/kg): 11.8 p/s (×10^6) |
| CCCCC/C=C\CCOC(=O)CCCCCC(=O)OCC(COC(=O)CCCCCC(=O)OCC/C=C\CCCCC)(COC(=O)CCC(CCCCCC)OC(=O)NCCN1CCCC1)COC(=O)CC12CC3CC(CC(C3)C1)C2 (stereo not shown) [Compound 8, O7-[2-[[2-(1-adamantyl)acetyl]oxymethyl]-2-[[7-[(Z)-non-3-enoxy]-7-oxo-heptanoyl]oxymethyl]-3-[4-(2-pyrrolidin-1-ylethylcarbamoyloxy)decanoyloxy]propyl]O1-[(Z)-non-3-enyl]heptanedioate] | 101 | 0.07 | 0.08 | 87 ± 6 | 0.06 | 117 ± 4 | 0.12 | 100 ± 2 | 0.19 | 79 ± 1 | 97 | 108 | 100 | 99 | 95 | 99 | 11.1 p/s (×10^6) | 2.8 p/s (×10^6) | 0.8 p/s (×10^6) | 72.4 p/s (×10^6) | PDI [1, 5]: 0.071; Particle Size (nm) [1, 5]: 119 nm; EE % [2, 5]: 98%; Organ Mean Total Flux Lung (mouse organs; Mouse 1, dose 0.3 mg/kg): 20.1 p/s (×10^6); Organ Mean Total Flux Muscle (mouse organs; Mouse 1, dose 0.3 mg/kg): 22.7 p/s (×10^6); Organ Mean Total Flux Pancreas (mouse organs; Mouse 1, dose 0.3 mg/kg): 4.4 p/s (×10^6); Organ Mean Total Flux Spleen (mouse organs; Mouse 1, dose 0.3 mg/kg): 10.7 p/s (×10^6); Organ Mean Total Flux Femur (mouse organs; Mouse 14, dose 0.5 mg/kg): 9.8 p/s (×10^6); Organ Mean Total Flux Heart (mouse organs; Mouse 14, dose 0.5 mg/kg): 2.2 p/s (×10^6); Organ Mean Total Flux Kidney (mouse organs; Mouse 14, dose 0.5 mg/kg): 3.6 p/s (×10^6); Organ Mean Total Flux Liver (mouse organs; Mouse 14, dose 0.5 mg/kg): 257.0 p/s (×10^6); Organ Mean Total Flux Lung (mouse organs; Mouse 14, dose 0.5 mg/kg): 6.4 p/s (×10^6); Organ Mean Total Flux Muscle (mouse organs; Mouse 14, dose 0.5 mg/kg): 46.9 p/s (×10^6); Organ Mean Total Flux Pancreas (mouse organs; Mouse 14, dose 0.5 mg/kg): 4.0 p/s (×10^6); Organ Mean Total Flux Spleen (mouse organs; Mouse 14, dose 0.5 mg/kg): 10.4 p/s (×10^6) |
| CCCCC/C=C\CCOC(=O)CCCCCC(=O)OCC(COC(=O)CCCCCC(=O)OCC/C=C\CCCCC)(COC(=O)CCC(CCCCCC)OC(=O)NCCN1CCCC1)COC(=O)CCC(OCCCCCCCC)OCCCCCCCC (stereo not shown) [Compound 9, O7-[2-(4,4-dioctoxybutanoyloxymethyl)-2-[[7-[(Z)-non-3-enoxy]-7-oxo-heptanoyl]oxymethyl]-3-[4-(2-pyrrolidin-1ylethylcarbamoyloxy)decanoyloxy]propyl]O1-[(Z)-non-3-enyl]heptanedioate] | 79 | 0.07 | 0.07 | 68 ± 2 | 0.03 | 76 ± 1 | 0.03 | 92 ± 2 | 0.13 | 63 ± 1 | 97 | 102 | 100 | 100 | 99 | 99 | 7.6 p/s (×10^6) | 1.4 p/s (×10^6) | 3.4 p/s (×10^6) | 3583 p/s (×10^6) | Organ Mean Total Flux Lung (mouse organs; Mouse 1, dose 0.3 mg/kg): 29.8 p/s (×10^6); Organ Mean Total Flux Muscle (mouse organs; Mouse 1, dose 0.3 mg/kg): 8.3 p/s (×10^6); Organ Mean Total Flux Pancreas (mouse organs; Mouse 1, dose 0.3 mg/kg): 6.7 p/s (×10^6); Organ Mean Total Flux Spleen (mouse organs; Mouse 1, dose 0.3 mg/kg): 32.5 p/s (×10^6) |
